Data on six compounds can be found in ChEMBL document CHEMBL1201862, “PubChem BioAssay data set” (2004).

The term IC50 denotes the concentration at which inhibition is half-maximal. In general, EC50 refers to the concentration that produces a half-maximal response. The term AC50 denotes the concentration giving half of the maximal activity seen.

Test [1] has as its target Glyceraldehyde-3-phosphate dehydrogenase (Homo sapiens, UniProt P04406).
Test [2] concerns the target T1, RNA-binding protein pos-1 (Caenorhabditis elegans, UniProt G5EF15).
T1 sequence (G5EF15 whole entry): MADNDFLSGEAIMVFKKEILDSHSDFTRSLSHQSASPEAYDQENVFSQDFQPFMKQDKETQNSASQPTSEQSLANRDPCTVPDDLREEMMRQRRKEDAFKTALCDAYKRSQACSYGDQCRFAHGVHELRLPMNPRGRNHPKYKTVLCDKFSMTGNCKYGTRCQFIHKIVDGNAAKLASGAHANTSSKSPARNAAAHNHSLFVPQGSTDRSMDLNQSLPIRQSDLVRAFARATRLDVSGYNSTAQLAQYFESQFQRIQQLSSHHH
The test is described as follows: disruptors of C. elegans POS-1 RNA interaction – biochemical, fluorescence polarization, dose response (AID 1964).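 Also: purified POS-1 fused to maltose binding protein made in E. coli; potency of compounds blocking POS-1 binding to fluorescent RNA.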

Test [3] addresses Heat shock 70 kDa protein 1A (Homo sapiens, UniProt P0DMV8). The test is described as follows: inhibition of Hsp70 binding activity – biochemical, fluorescence polarization, SAR follow-up (AID 1072). (Fluorescence polarisation rises when a labelled molecule tumbles more slowly, as on binding a larger partner.)
Test [4] deals with T2, Zinc finger protein mex-5 (Caenorhabditis elegans, UniProt Q9XUB2).
T2 sequence (Q9XUB2 whole entry): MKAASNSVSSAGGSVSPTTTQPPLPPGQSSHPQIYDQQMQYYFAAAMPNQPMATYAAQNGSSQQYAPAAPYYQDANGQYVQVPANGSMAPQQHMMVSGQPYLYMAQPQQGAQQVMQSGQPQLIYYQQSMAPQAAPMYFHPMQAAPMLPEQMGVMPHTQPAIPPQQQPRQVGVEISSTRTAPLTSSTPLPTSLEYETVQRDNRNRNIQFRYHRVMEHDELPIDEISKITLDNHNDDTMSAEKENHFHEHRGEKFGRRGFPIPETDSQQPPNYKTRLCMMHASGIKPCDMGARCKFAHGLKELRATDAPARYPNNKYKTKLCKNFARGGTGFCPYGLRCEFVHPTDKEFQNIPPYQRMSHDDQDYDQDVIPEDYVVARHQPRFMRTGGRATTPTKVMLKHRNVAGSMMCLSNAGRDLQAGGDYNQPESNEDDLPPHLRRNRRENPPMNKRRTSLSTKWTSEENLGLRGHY
The test is described as follows: potency of MEX-5 RNA-binding blockers – biochemical, C. elegans, fluorescence polarization, dose response (AID 1960).

Test [5] deals with Heat shock cognate 71 kDa protein (Homo sapiens, UniProt P11142). The test is described as follows: In Vitro Hsc70 Dose Response Fluorescence Polarization Assay. [Related pubchem assays: 1072 ].
In test [6] the target is Potassium voltage-gated channel subfamily KQT member 2 (Rattus norvegicus, UniProt O88943). The test is described as follows: Mode of action assay - current amplitude concentration response for derivatives of ZTZ240, a potentiator of KCNQ2 potassium channels. [Related pubchem assays: 2258 (Summary assay for the KCNQ2 potentiators.), 2239 (Primary HTS assay for KCNQ2 potentiators with 305606 compounds tested, and 1644 are found to be active.)]. It counts as functional.

Test [7] has as its system Streptococcus. The test is described as follows: GAS UMAA2166 growth inhibition – luminescence, BacTiterGlo, counter-screen for streptokinase expression inhibitor project, dose response (AID 1915).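 Also: potency for reduction of bacterial viability or growth.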 It counts as functional, organism-based.
Test [8] can be described thus: Luminescence Cell-Based Dose Retest to Confirm Inhibitors of Cancer Stem Cells. [Related pubchem assays (depositor defined):AID2717, AID2721]. The following applies: Homo sapiens. The class given is functional.
In a further test the target is T3, Streptokinase A (Streptococcus pyogenes serotype M1, UniProt P10520).
T3 sequence (P10520 whole entry): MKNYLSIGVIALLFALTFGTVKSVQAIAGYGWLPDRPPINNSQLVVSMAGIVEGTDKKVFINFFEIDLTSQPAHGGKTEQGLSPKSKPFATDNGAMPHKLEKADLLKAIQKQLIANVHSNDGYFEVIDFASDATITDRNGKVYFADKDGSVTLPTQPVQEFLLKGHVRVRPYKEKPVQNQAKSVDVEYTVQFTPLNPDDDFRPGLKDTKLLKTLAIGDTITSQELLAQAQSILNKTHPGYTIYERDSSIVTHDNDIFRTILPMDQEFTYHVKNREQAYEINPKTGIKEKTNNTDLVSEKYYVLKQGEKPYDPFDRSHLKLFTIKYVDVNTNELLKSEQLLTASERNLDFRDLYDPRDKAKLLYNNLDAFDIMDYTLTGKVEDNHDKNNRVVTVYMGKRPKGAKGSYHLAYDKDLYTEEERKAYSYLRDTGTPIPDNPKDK
The test is described as follows: viability-normalized secreted streptokinase activity reduction – plasminogen activation absorbance, OD405, dose response (AID 1914).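 Also: secreted streptokinase activity via plasminogen activation per viability signal from cell pellet.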 It counts as functional, Streptococcus pyogenes M1 GAS.

Test [9] is described as follows: viability of HCT116 lacking mutant beta-catenin – cell-based, human colon tumor, dose response (AID 1045).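 Also: HCT116 colon tumor cells with beta catenin knocked out; cells exposed to compound for 60 hours.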 The class given is functional.
The next test has as its system INS1. The test is described as follows: INS-1E survival protection against cytokine death – cell-based, luminescence, retest, dose response (AID 449756).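 Also: cell death triggered by IL-1 beta plus TNF-alpha plus IFN-gamma mixture; protective hits raise ATP signal compared with cytokine alone wells.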 The class given is functional. The conditions noted are these: Rattus norvegicus.
A short description of test [10]: viability of PTEN-deleted HCT116 cells – cell-based, HCT116 PTEN knockout, dose response (AID 1047).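 Also: HCT116 colon tumor cells with PTEN knocked out; cells exposed to compound for 60 hours before readout; potency for loss of cell viability measured by luminescence.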 The class given is functional.
The subject of test [11] is Streptococcus. The test is described as follows: Luminescence Microorganism-Based Dose Response Follow up to Identify Compounds Cytotoxic to Streptococcus. [Related pubchem assays: 1677 (Project Summary), 1915, 1914, 1902 (Retest at Dose), 1900 (Counter Screen), 1662 (Primary HTS)]. It counts as functional, organism-based. For orientation: The purpose of a counterscreen is to sort out artefacts and off-target activity.

In test [12] the test system is Streptococcus sp. 'group A'. The test is described as follows: Streptococcus pyogenes SK(-)GAS viability under kanamycin – luminescence, BacTiterGlo, confirmation, counter-screen for streptokinase expression inhibitor project, dose response (AID 1900). It counts as functional, organism-based.
For test [13], the target named is T4, Voltage-gated N-type calcium channel alpha-1B subunit/Amyloid beta A4 precursor protein-binding family A member 1 (Homo sapiens, UniProt Q00975+Q02410). The class given is protein assay.
The target of another test is Insulin-degrading enzyme (Homo sapiens, UniProt P14735). The test is described as follows: Dose Response: Fluorescence polarization-based cell-based high throughput dose response assay for inhibitors of insulin-degrading enzyme (IDE). [Related pubchem assays: 434962 (Primary screen (IDE inhibitors in singlicate)), 449730 (Counterscreen (Cytotoxicity in triplicate)), 435028 (Confirmation (IDE inhibitors in triplicate)), 434984 (Summary …. It counts as functional.

Test [14] deals with T4, Voltage-gated N-type calcium channel alpha-1B subunit/Amyloid beta A4 precursor protein-binding family A member 1. It counts as protein assay. The source holds these as a separate data set.
The nature of test [15]: Counterscreen for IDE inhibitors: Luminescence-based cell-based high throughput dose response assay to identify compounds that are cytotoxic to HEK cells. [Related pubchem assays: 434962 (Primary screen (IDE inhibitors in singlicate)), 449730 (Counterscreen (Cytotoxicity in triplicate)), 435028 (Confirmation (IDE inhibitors in triplicate)) …. The class given is functional. The following applies: HEK293.

Test [16] is described as follows: microbe, parasite or virus in culture. It counts as functional. The following applies: Mycobacterium tuberculosis.
The target of the next test is Galanin receptor type 2 (Homo sapiens, UniProt O43603). The test is described as follows: Dose Response cell-based high-throughput screening assay to identify antagonists of galanin receptor 2 (GALR2). [Related pubchem assays: 828, 866 ]. The class given is functional.
Test [17] is described as follows: Trypanosoma cruzi growth suppression in host cells – NIH3T3 host cells, beta-gal luminescence, confirmation (AID 2044).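 Also: intracellular parasites grown in NIH/3T3 mouse fibroblasts as host cells; luminescent beta-galactosidase reporter signal from transgenic T. cruzi replicating inside host cells; inhibitors lower the luminescence signal.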 It counts as functional, cell-based.
Test [18] concerns BJ. The test is described as follows: cells. The class given is functional, cell-based. The conditions noted are these: Homo sapiens.
Test [19] is described as follows: DRD fibroblast viability loss – cell-based, non-viral oncogenic, luminescence, dose response (AID 1934). The class given is functional. The conditions noted are these: Homo sapiens.
Test [20] can be described thus: NIH3T3 cell viability loss – ATP luminescence, mouse fibroblasts, counter-screen, dose response (AID 2010).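 Also: cells exposed to compound for about 90 hours before reading.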 The class given is functional, cell-based.
Test [21] is described as follows: non-specific 3'UTR reporter inhibition in Clone20-Shn3RL – cell-based, Renilla luciferase, cherry-picked, counter-screen for Shn3 inhibitor project, dose response (AID 624133). It counts as functional.
Test [22] relates to BJ. The test is described as follows: BJ-TERT fibroblast viability loss – cell-based, RAS-independent, luminescence, dose response (AID 1933). The class given is functional. The conditions noted are these: Homo sapiens.
Test [23] concerns BJ. The test is described as follows: BJ-TERT-LT-ST fibroblast viability loss – cell-based, RAS-independent, luminescence, dose response (AID 1935).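 Also: BJ fibroblasts immortalized with TERT plus LT and ST oncogenes.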 The following applies: Homo sapiens. It counts as functional.
Test [24] can be described thus: reduction of Shn3 3'UTR-driven luciferase in osteoblasts – cell-based, Clone20 osteoblasts, firefly luciferase, cherry-picked, dose response (AID 624132).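 Also: firefly luciferase luminescence from reporter carrying the Shn3 3'UTR in osteoblasts.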 It counts as functional.
Test [25] is described as follows: loss of viability in HepG2 cells – cell-based, CellTiter-Glo, cherry-picked, cytotoxicity control for Shn3 inhibitor project, dose response (AID 624134). It counts as functional. On the technique in general: Cellular ATP, detected with luciferase, serves as a proxy for viable cell number.
The subject of the next test is HeLa. The test is described as follows: Cytotoxicity counterscreen assay for transcriptional activators of heat shock protein 70 (Hsp70). [Related pubchem assays: 1203, 1252 ]. The following applies: Homo sapiens. It counts as functional.
Test [26] concerns the target Induced myeloid leukemia cell differentiation protein Mcl-1 (Homo sapiens, UniProt Q07820). It counts as functional.
The target of test [27] is Bifunctional protein GlmU (Mycobacterium tuberculosis, UniProt P9WMN3). The test is described as follows: Inhibitors of Mycobacterial Glucosamine-1-phosphate acetyl transferase (GlmU). Secondary screen. Details: species or system Mycobacterium tuberculosis H37Rv.
A short description of test [28]: NIH-3T3 fibroblast cytotoxicity, dose response, cytotoxicity control, cell-based, fluorescence, Alamar Blue, secondary assay (AID 2327).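 Also: NIH-3T3 mouse fibroblasts cultured with fluconazole at 8 µg/mL.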 It counts as functional.
A short description of test [29]: fluconazole-exposed Candida albicans growth modulators – fluorescence, retest, confirmation (AID 2467). It counts as functional, cell-based.
Test [30] can be described thus: mitochondrial function rescue without frataxin homolog – Friedreich's ataxia, plus single-dose screen, dose response (AID 1465).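 Also: yeast depleted of Yfh1p frataxin homolog grown on glycerol needing respiration; WST-1 tetrazolium dye reduction as measure of cellular dehydrogenase metabolic activity.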 The class given is functional.

Each structure is given as a SMILES string. The source made the active and inactive calls. Some results are limits rather than exact numbers.

T4 sequence (Q00975 whole entry): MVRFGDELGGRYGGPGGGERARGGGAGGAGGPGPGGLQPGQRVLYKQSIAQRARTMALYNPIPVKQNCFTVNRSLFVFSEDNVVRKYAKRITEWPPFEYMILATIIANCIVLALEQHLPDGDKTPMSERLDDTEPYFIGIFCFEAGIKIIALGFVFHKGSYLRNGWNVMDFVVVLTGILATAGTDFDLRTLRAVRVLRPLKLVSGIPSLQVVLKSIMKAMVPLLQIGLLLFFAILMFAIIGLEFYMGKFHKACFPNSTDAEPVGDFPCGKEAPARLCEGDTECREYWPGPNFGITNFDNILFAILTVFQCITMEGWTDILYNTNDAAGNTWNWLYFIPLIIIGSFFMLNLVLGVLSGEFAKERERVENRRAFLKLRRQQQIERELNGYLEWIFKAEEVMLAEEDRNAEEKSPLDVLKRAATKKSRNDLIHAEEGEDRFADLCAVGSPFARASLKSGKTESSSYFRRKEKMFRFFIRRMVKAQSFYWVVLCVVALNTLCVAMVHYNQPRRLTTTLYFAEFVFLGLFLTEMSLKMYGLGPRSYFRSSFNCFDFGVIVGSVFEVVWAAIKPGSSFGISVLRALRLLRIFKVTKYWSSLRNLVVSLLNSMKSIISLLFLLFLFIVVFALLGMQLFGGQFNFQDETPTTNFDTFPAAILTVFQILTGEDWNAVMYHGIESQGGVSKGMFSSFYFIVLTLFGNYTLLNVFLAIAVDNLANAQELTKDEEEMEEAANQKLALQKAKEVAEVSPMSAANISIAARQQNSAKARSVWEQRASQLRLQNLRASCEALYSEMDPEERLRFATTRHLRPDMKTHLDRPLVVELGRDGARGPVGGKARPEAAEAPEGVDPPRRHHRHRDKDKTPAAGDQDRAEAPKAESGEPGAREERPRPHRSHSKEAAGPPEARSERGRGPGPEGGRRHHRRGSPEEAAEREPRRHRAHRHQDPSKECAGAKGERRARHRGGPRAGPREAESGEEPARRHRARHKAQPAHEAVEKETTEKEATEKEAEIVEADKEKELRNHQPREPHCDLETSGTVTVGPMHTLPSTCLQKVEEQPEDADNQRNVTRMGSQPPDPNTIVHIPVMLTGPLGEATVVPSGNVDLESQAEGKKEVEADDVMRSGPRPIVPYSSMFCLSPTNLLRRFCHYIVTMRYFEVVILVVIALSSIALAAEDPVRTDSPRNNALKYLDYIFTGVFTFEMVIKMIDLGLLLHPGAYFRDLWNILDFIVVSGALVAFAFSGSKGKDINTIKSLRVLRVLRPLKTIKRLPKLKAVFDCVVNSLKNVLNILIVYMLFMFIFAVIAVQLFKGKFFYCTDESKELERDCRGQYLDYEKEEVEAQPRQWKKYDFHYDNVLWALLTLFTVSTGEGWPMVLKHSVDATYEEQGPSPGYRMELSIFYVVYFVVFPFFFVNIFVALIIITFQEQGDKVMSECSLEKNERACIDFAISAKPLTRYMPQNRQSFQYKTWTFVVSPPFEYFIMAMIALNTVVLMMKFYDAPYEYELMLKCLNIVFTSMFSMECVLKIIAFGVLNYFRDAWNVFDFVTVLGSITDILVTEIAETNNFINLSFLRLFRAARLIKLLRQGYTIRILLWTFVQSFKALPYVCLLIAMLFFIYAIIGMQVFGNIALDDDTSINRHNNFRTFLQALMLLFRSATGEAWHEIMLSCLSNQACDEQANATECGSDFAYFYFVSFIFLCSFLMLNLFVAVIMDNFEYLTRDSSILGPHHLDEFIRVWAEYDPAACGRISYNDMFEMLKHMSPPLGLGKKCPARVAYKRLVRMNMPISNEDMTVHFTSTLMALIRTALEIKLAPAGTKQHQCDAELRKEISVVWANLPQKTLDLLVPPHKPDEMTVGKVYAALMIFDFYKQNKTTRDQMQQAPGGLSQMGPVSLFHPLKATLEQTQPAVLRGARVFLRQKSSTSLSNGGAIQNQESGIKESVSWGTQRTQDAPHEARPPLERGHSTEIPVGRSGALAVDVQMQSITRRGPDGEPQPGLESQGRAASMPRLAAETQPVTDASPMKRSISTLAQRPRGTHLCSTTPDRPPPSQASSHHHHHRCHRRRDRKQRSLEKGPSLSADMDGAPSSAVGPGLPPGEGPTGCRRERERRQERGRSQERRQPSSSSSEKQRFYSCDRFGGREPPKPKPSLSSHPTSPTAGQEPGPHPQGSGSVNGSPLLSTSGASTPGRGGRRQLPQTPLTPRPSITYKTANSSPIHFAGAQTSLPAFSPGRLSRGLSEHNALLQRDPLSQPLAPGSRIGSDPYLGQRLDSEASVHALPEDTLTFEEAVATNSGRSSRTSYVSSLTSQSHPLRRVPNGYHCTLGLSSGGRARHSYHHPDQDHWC
T4 sequence (Q02410 whole entry): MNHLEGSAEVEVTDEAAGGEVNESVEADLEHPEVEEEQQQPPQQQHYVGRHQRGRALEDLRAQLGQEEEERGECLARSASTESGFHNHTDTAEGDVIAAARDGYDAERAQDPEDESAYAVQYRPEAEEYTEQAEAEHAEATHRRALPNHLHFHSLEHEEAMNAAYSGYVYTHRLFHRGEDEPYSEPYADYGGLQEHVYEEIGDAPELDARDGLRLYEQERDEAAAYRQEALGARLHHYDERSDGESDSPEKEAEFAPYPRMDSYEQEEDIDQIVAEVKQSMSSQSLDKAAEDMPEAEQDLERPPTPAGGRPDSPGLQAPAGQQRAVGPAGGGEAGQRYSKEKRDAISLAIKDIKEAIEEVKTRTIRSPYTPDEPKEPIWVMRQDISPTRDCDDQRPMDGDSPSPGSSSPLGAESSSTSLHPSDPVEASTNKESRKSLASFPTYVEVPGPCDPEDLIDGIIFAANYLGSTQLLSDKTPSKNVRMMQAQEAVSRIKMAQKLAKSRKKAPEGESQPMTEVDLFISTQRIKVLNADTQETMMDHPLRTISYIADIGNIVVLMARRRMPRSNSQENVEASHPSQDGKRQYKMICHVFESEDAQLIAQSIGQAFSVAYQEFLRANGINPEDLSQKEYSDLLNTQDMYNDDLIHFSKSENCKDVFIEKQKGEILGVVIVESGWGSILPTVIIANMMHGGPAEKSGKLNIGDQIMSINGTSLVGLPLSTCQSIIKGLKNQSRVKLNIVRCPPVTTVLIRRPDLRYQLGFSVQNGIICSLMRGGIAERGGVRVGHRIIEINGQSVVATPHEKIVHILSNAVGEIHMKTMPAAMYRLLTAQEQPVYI
Chain of Insulin-degrading enzyme (P14735 whole entry): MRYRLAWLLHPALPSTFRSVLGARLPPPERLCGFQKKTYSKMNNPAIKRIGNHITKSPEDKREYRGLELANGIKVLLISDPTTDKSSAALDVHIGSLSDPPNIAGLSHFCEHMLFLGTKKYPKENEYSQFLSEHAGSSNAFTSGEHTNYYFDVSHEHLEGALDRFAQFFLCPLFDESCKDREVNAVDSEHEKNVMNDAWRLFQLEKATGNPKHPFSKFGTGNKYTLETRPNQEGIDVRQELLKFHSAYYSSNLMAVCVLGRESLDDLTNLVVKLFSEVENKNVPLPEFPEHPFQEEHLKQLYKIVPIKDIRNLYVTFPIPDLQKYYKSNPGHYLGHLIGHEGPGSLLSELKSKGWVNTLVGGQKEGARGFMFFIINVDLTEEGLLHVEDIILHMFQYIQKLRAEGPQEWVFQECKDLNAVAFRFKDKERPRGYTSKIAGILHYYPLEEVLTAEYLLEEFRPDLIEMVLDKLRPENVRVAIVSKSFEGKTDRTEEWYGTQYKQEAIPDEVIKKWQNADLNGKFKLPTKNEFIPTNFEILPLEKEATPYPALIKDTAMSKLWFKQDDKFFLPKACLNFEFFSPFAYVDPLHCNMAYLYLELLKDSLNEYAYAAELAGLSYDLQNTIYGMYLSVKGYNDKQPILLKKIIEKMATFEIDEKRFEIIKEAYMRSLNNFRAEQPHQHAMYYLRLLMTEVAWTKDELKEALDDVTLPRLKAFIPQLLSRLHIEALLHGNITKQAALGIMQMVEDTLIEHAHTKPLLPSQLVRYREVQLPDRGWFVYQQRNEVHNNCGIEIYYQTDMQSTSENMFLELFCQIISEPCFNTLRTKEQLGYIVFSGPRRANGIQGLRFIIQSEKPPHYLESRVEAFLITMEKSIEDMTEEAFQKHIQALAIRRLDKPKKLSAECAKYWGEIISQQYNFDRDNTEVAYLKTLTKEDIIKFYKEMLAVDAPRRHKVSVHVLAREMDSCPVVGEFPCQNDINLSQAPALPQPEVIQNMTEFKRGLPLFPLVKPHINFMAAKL
Chain of Galanin receptor type 2 (O43603 whole entry): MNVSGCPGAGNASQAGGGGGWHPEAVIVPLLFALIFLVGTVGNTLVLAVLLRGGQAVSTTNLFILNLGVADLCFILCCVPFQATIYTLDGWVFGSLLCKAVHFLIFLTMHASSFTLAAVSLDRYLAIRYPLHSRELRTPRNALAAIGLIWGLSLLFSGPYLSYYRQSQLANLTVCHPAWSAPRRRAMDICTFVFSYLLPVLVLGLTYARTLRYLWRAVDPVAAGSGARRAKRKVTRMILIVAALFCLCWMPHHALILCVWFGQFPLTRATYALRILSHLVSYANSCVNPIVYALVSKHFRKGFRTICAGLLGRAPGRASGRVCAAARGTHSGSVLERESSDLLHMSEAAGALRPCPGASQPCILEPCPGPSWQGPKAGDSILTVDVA
Chain of Glyceraldehyde-3-phosphate dehydrogenase (P04406 whole entry): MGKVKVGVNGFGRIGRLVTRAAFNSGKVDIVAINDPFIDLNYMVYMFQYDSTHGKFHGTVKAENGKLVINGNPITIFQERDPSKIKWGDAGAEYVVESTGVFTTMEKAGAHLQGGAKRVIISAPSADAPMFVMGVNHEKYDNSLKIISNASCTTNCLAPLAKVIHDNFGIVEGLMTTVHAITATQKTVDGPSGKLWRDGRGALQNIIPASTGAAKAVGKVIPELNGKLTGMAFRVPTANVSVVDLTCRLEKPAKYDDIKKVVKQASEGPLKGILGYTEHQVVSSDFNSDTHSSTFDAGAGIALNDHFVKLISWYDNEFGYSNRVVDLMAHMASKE

Turning to `O=C(O)C1Nc2c(C(F)(F)F)ccc(Cl)c2C2C=CCC12` (configuration not stated), the IC50 in test [1], in test [3] and in test [5] was > 100 µM (not active) throughout. Also, the EC50 is 110 µM (active) in test [2] and 61.5 µM (active) in [4].
In the case of `O=C(Nc1ccc(Br)nc1)c1cccc(F)c1`, in [6], the EC50 was 1.65 µM (active).
Consider `O=C(Nc1cc(S(=O)(=O)Nc2ccc(Cl)cc2)ccc1N1CCCCC1)c1ccc(F)cc1`, for which the EC50 with Streptococcus [7] is > 150 µM (not active); on Streptokinase A it was 5.17 µM (active); in test [9] it was 21 µM (active); in [10], 29.4 µM (active); in the test on Streptococcus [11] it was 150 µM (active); in test [12], 10.2 µM (active). The AC50 in test [8] is 4.98 µM (active); with INS1, 8.05 µM (active).
In the case of `Cc1cc(C)c2c(=O)n(CC(=O)NCCCN3CCOCC3)sc2n1`, the 50% inhibitory concentration (IC50) in test [13] was 46 µM (active); at Insulin-degrading enzyme, 7.16 µM (active); in test [14], 10.8 µM (active); in [15], 21.2 µM (not active).
For the compound `O=C(/C=C/Sc1nc[nH]n1)c1ccc(Cl)cc1`, the values for the CC50 (in test [16]; in the test on HeLa) were 25.4 µM (active) and > 3.67 µM (not active), respectively. Further, the half-inhibitory concentration (IC50) against Galanin receptor type 2 is listed as 10.9 µM (not active). The EC50 is 1.99 µM (active) in [17]; 6.44 µM (inconclusive) in the test with BJ [18]; 5.81 µM (active) in test [19]; 3.28 µM (active) in test [20]; 4.19 µM (active) with BJ [22]; 12.3 µM (active) in the test with BJ [23]. The figures for the AC50 in test [21], in test [24] and in test [25] were 14.4 µM (active), 9.76 µM (active) and 31.2 µM (active), respectively.
As for `CN(C)S(=O)(=O)c1cccc(NC(=S)N/N=C/c2ccc(O)c(O)c2O)c1`, the IC50 in test [26] was 1.17 µM (active); in [27], 68.4 µM (active). The EC50 is > 150 µM (inactive) in test [28]; 15 µM (active) in [2]; 3.48 µM (active) in [4]; > 38 µM (not active) in [29]; > 100 µM (active) in [30].
